Source: patent publication US8952024B2, “Herbicidal pyrimidone derivatives” (E I du Pont de Nemours and Company, priority 2009, dated 2015)

Columns and labels:
Assay type in all cases: in vivo
[1] = test system: ducksalad (Heteranthera limosa); experiment: Test B flooded paddy test; conditions: for Plant response rating, Flood, Ducksalad: 250 g ai/ha, flooded paddy test, visual rating on 0 to 100 scale (0 no effect, 100 complete control) after 13 to 15 days; for Plant response rating, Ducksalad: Flood (flooded paddy test), 13 to 15 days; for Ducksalad plant response rating: Flood, 31 g ai/ha, scale 0 to 100 (0 no effect, 100 complete control)
Outline: (§1)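 Greenhouse-held for 13 to 15 days, treated pots were compared visually with controls and scored 0–100 (0, no effect). Treatment had been made into paddy water kept at 3 cm above the soil, with plants at the 2-leaf stage.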

[2] = test system: barnyardgrass (Echinochloa crus-galli); experiment: Test B flooded paddy test; conditions: for Plant response rating, Flood, Barnyardgrass: 250 g ai/ha, flooded paddy test, visual rating on 0 to 100 scale (0 no effect, 100 complete control) after 13 to 15 days; for Plant response rating, Barnyardgrass: Flood (flooded paddy test), 13 to 15 days; for Barnyardgrass plant response rating: Flood, 31 g ai/ha, scale 0 to 100 (0 no effect, 100 complete control)
Outline: as §1

[3] = test system: umbrella sedge (Cyperus difformis); experiment: Test B flooded paddy test; conditions: for Plant response rating, Flood, Sedge, Umbrella: 250 g ai/ha, flooded paddy test, visual rating on 0 to 100 scale (0 no effect, 100 complete control) after 13 to 15 days; for Plant response rating, Sedge, Umbrella: Flood (flooded paddy test), 13 to 15 days; for Sedge, Umbrella plant response rating: Flood, 31 g ai/ha, scale 0 to 100 (0 no effect, 100 complete control)
Outline: as §1

rice (Oryza sativa) = experiment: Test B flooded paddy test; conditions: for Plant response rating, Flood, Rice: 250 g ai/ha, flooded paddy test, visual rating on 0 to 100 scale (0 no effect, 100 complete control) after 13 to 15 days; for Plant response rating, Rice: Flood (flooded paddy test), 13 to 15 days; for Rice plant response rating: Flood, 31 g ai/ha, scale 0 to 100 (0 no effect, 100 complete control)
Outline: as §1

[4] = test system: wheat (Triticum aestivum); experiment: Test A pre-/postemergence plant response; conditions: for Wheat plant response rating: visual injury, 0 to 100 scale (0 no effect, 100 complete control), approx. ten days
Outline: (§2)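 Each species was treated preemergence via directed soil spray and postemergence at the one- to two-leaf stage, with compounds formulated in a non-phytotoxic solvent plus surfactant. Visual injury relative to untreated controls was rated after about ten days on a 0–100 scale.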

[5] = test system: morningglory (Ipomoea spp.); experiment: Test A pre-/postemergence plant response; conditions: for Morningglory plant response rating: visual injury, 0 to 100 scale (0 no effect, 100 complete control), approx. ten days
Outline: as §2

[6] = test system: giant foxtail (Setaria faberii); experiment: Test A pre-/postemergence plant response; conditions: for Foxtail, Giant plant response rating: visual injury, 0 to 100 scale (0 no effect, 100 complete control), approx. ten days
Outline: as §2

[7] = test system: velvetleaf (Abutilon theophrasti); experiment: Test A pre-/postemergence plant response; conditions: for Velvetleaf plant response rating: visual injury, 0 to 100 scale (0 no effect, 100 complete control), approx. ten days
Outline: as §2

[8] = test system: pigweed (Amaranthus retroflexus); experiment: Test A pre-/postemergence plant response; conditions: for Pigweed plant response rating: visual injury, 0 to 100 scale (0 no effect, 100 complete control), approx. ten days
Outline: as §2

corn (Zea mays) = experiment: Test A pre-/postemergence plant response; conditions: for Corn plant response rating: visual injury, 0 to 100 scale (0 no effect, 100 complete control), approx. ten days
Outline: as §2

[9] = test system: barnyardgrass (Echinochloa crus-galli); experiment: Test A pre-/postemergence plant response; conditions: for Barnyardgrass plant response rating: visual injury, 0 to 100 scale (0 no effect, 100 complete control), approx. ten days
Outline: as §2

[10] = test system: large crabgrass (Digitaria sanguinalis); experiment: Test A pre-/postemergence plant response; conditions: for Crabgrass, Large plant response rating: visual injury, 0 to 100 scale (0 no effect, 100 complete control), approx. ten days
Outline: as §2

[11] = 62 g ai/ha, scale of 0 to 100 where 0 is no effect and 100 is complete control
[12] = 125 g ai/ha, scale 0 to 100, 0 is no effect, 100 is complete control
[13] = Postemergence, 125 g ai/ha, 0 to 100 scale where 0 is no effect and 100 is complete control
[14] = Preemergence, 125 g ai/ha, 0 to 100 scale, 0 = no effect, 100 = complete control
[15] = Preemergence, 500 g ai/ha, 0 to 100 scale, 0 = no effect, 100 = complete control

## Cc1ccc(F)cc1-n1c(-c2cc(F)cc(F)c2)ncc(C(=O)C2=C(O)CCCC2=O)c1=O [Compound 183]
[1]
  Plant response rating, Flood, Ducksalad: 95
  Ducksalad plant response rating: 30
[1]; [11]
  Plant response rating, Ducksalad: 65
[1]; [12]
  Plant response rating, Ducksalad: 80
[2]
  Plant response rating, Flood, Barnyardgrass: 35
  Barnyardgrass plant response rating: 0
[2]; [11]
  Plant response rating, Barnyardgrass: 0
[2]; [12]
  Plant response rating, Barnyardgrass: 0
[3]
  Plant response rating, Flood, Sedge, Umbrella: 90
  Sedge, Umbrella plant response rating: 0
[3]; [11]
  Plant response rating, Sedge, Umbrella: 50
[3]; [12]
  Plant response rating, Sedge, Umbrella: 65
Rice (Oryza sativa)
  Plant response rating, Flood, Rice: 0
  Rice plant response rating: 0
Rice (Oryza sativa); [11]
  Plant response rating, Rice: 0
Rice (Oryza sativa); [12]
  Plant response rating, Rice: 0
[4]; [13]
  Plant response rating, Wheat: 50
[4]; Postemergence, 500 g ai/ha
  Wheat plant response rating: 80
[4]; [14]
  Plant response rating, Wheat: 0
[4]; [15]
  Plant response rating, Wheat: 50
[5]; [13]
  Plant response rating, Morningglory: 40
[5]; Postemergence, 500 g ai/ha
  Morningglory plant response rating: 70
[5]; [14]
  Plant response rating, Morningglory: 20
[5]; [15]
  Plant response rating, Morningglory: 50
[6]; [13]
  Plant response rating, Foxtail, Giant: 80
[6]; Postemergence, 500 g ai/ha
  Foxtail, Giant plant response rating: 100
[6]; [14]
  Plant response rating, Foxtail, Giant: 60
[6]; [15]
  Plant response rating, Foxtail, Giant: 90
[7]; [13]
  Plant response rating, Velvetleaf: 100
[7]; Postemergence, 500 g ai/ha
  Velvetleaf plant response rating: 100
[7]; [14]
  Plant response rating, Velvetleaf: 100
[7]; [15]
  Plant response rating, Velvetleaf: 100
[8]; [13]
  Plant response rating, Pigweed: 100
[8]; Postemergence, 500 g ai/ha
  Pigweed plant response rating: 100
[8]; [14]
  Plant response rating, Pigweed: 90
[8]; [15]
  Plant response rating, Pigweed: 100
Corn (Zea mays); [13]
  Plant response rating, Corn: 10
Corn (Zea mays); Postemergence, 500 g ai/ha
  Corn plant response rating: 80
Corn (Zea mays); [14]
  Plant response rating, Corn: 0
Corn (Zea mays); [15]
  Plant response rating, Corn: 0
[9]; [13]
  Plant response rating, Barnyardgrass: 60
[9]; Postemergence, 500 g ai/ha
  Barnyardgrass plant response rating: 90
[9]; [14]
  Plant response rating, Barnyardgrass: 20
[9]; [15]
  Plant response rating, Barnyardgrass: 100
[10]; [13]
  Plant response rating, Crabgrass, Large: 80
[10]; Postemergence, 500 g ai/ha
  Crabgrass, Large plant response rating: 100
[10]; [14]
  Plant response rating, Crabgrass, Large: 90
[10]; [15]
  Plant response rating, Crabgrass, Large: 100

## O=C1CCCC(O)=C1C(=O)c1cnc(-c2ccco2)n(C2CCCCC2)c1=O [Compound 188]
[1]
  Plant response rating, Flood, Ducksalad: 85
[1]; [11]
  Plant response rating, Ducksalad: 70
[2]
  Plant response rating, Flood, Barnyardgrass: 0
[2]; [11]
  Plant response rating, Barnyardgrass: 0
[3]
  Plant response rating, Flood, Sedge, Umbrella: 85
[3]; [11]
  Plant response rating, Sedge, Umbrella: 80
Rice (Oryza sativa)
  Plant response rating, Flood, Rice: 15
Rice (Oryza sativa); [11]
  Plant response rating, Rice: 0
[4]; [13]
  Plant response rating, Wheat: 0
[4]; Postemergence, 500 g ai/ha
  Wheat plant response rating: 0
[4]; [14]
  Plant response rating, Wheat: 0
[4]; [15]
  Plant response rating, Wheat: 0
[5]; [13]
  Plant response rating, Morningglory: 90
[5]; Postemergence, 500 g ai/ha
  Morningglory plant response rating: 100
[5]; [14]
  Plant response rating, Morningglory: 70
[5]; [15]
  Plant response rating, Morningglory: 80
[6]; [13]
  Plant response rating, Foxtail, Giant: 40
[6]; Postemergence, 500 g ai/ha
  Foxtail, Giant plant response rating: 80
[6]; [14]
  Plant response rating, Foxtail, Giant: 10
[6]; [15]
  Plant response rating, Foxtail, Giant: 40
[7]; [13]
  Plant response rating, Velvetleaf: 100
[7]; Postemergence, 500 g ai/ha
  Velvetleaf plant response rating: 100
[7]; [14]
  Plant response rating, Velvetleaf: 70
[7]; [15]
  Plant response rating, Velvetleaf: 80
[8]; [13]
  Plant response rating, Pigweed: 90
[8]; Postemergence, 500 g ai/ha
  Pigweed plant response rating: 100
[8]; [14]
  Plant response rating, Pigweed: 60
[8]; [15]
  Plant response rating, Pigweed: 80
Corn (Zea mays); [13]
  Plant response rating, Corn: 0
Corn (Zea mays); Postemergence, 500 g ai/ha
  Corn plant response rating: 10
Corn (Zea mays); [14]
  Plant response rating, Corn: 0
Corn (Zea mays); [15]
  Plant response rating, Corn: 0
[9]; [13]
  Plant response rating, Barnyardgrass: 70
[9]; Postemergence, 500 g ai/ha
  Barnyardgrass plant response rating: 90
[9]; [14]
  Plant response rating, Barnyardgrass: 0
[9]; [15]
  Plant response rating, Barnyardgrass: 30
[10]; [13]
  Plant response rating, Crabgrass, Large: 80
[10]; Postemergence, 500 g ai/ha
  Crabgrass, Large plant response rating: 90
[10]; [14]
  Plant response rating, Crabgrass, Large: 30
[10]; [15]
  Plant response rating, Crabgrass, Large: 70

## Cc1cccc(-c2ncc(C(=O)C3=C(O)CCCC3=O)c(=O)n2-c2ccc(F)cc2C)c1 [Compound 192]
[1]
  Plant response rating, Flood, Ducksalad: 75
  Ducksalad plant response rating: 60
[1]; [11]
  Plant response rating, Ducksalad: 60
[1]; [12]
  Plant response rating, Ducksalad: 75
[2]
  Plant response rating, Flood, Barnyardgrass: 0
  Barnyardgrass plant response rating: 0
[2]; [11]
  Plant response rating, Barnyardgrass: 0
[2]; [12]
  Plant response rating, Barnyardgrass: 0
[3]
  Plant response rating, Flood, Sedge, Umbrella: 60
  Sedge, Umbrella plant response rating: 0
[3]; [11]
  Plant response rating, Sedge, Umbrella: 40
[3]; [12]
  Plant response rating, Sedge, Umbrella: 50
Rice (Oryza sativa)
  Plant response rating, Flood, Rice: 20
  Rice plant response rating: 0
Rice (Oryza sativa); [11]
  Plant response rating, Rice: 0
Rice (Oryza sativa); [12]
  Plant response rating, Rice: 0
[4]; [13]
  Plant response rating, Wheat: 0
[4]; Postemergence, 500 g ai/ha
  Wheat plant response rating: 0
[4]; [14]
  Plant response rating, Wheat: 0
[4]; [15]
  Plant response rating, Wheat: 20
[5]; Postemergence, 500 g ai/ha
  Morningglory plant response rating: 70
[5]; [14]
  Plant response rating, Morningglory: 0
[5]; [15]
  Plant response rating, Morningglory: 0
[6]; [13]
  Plant response rating, Foxtail, Giant: 50
[6]; Postemergence, 500 g ai/ha
  Foxtail, Giant plant response rating: 70
[6]; [14]
  Plant response rating, Foxtail, Giant: 0
[6]; [15]
  Plant response rating, Foxtail, Giant: 40
[7]; [13]
  Plant response rating, Velvetleaf: 70
[7]; Postemergence, 500 g ai/ha
  Velvetleaf plant response rating: 100
[7]; [14]
  Plant response rating, Velvetleaf: 0
[7]; [15]
  Plant response rating, Velvetleaf: 60
[8]; [13]
  Plant response rating, Pigweed: 60
[8]; Postemergence, 500 g ai/ha
  Pigweed plant response rating: 80
[8]; [14]
  Plant response rating, Pigweed: 0
[8]; [15]
  Plant response rating, Pigweed: 50
Corn (Zea mays); [13]
  Plant response rating, Corn: 0
Corn (Zea mays); Postemergence, 500 g ai/ha
  Corn plant response rating: 40
Corn (Zea mays); [14]
  Plant response rating, Corn: 40
Corn (Zea mays); [15]
  Plant response rating, Corn: 40
[9]; [13]
  Plant response rating, Barnyardgrass: 60
[9]; Postemergence, 500 g ai/ha
  Barnyardgrass plant response rating: 90
[9]; [14]
  Plant response rating, Barnyardgrass: 10
[9]; [15]
  Plant response rating, Barnyardgrass: 30
[10]; [13]
  Plant response rating, Crabgrass, Large: 30
[10]; Postemergence, 500 g ai/ha
  Crabgrass, Large plant response rating: 80
[10]; [14]
  Plant response rating, Crabgrass, Large: 10
[10]; [15]
  Plant response rating, Crabgrass, Large: 40
